Measurements reported in ChEMBL document CHEMBL1268936, “Towards a systematic characterization of the antiprotozoal activity landscape of benzimidazole derivatives” (Bioorg Med Chem, 2010).
pIC50: −log10 of the molar value.

Columns and labels:
[1] = system: Trichomonas vaginalis; experiment: Antiprotozoal activity against Trichomonas vaginalis; assay type: functional, organism-based
[2] = system: Giardia intestinalis; experiment: Antiprotozoal activity against Giardia intestinalis; assay type: functional, organism-based; conditions: Giardia duodenalis

Row | Compound | pIC50 [1] | pIC50 [2]
1 | CCCSc1ccc2c(c1)nc(C(F)(F)F)n2C | 6.70 | 4.98
2 | CCCSc1ccc2nc(C(F)(F)F)n(C)c2c1 | 5.59 | 5.85
3 | Cn1c(C(F)(F)F)nc2cc(C(=O)c3ccccc3)ccc21 | 4.53 | 5.96
4 | Cn1c(C(F)(F)F)nc2ccc(C(=O)c3ccccc3)cc21 | 4.97 | 5.89
5 | FC(F)(F)C(F)(F)c1nc2cc(Cl)c(Cl)cc2[nH]1 | 6.52 | 6.25
6 | O=[N+]([O-])c1cc2nc(C(F)(F)F)[nH]c2cc1[N+](=O)[O-] | 6.24 | 6.62
7 | FC(F)(F)C(F)(F)c1nc2c(Br)c(Br)c(Br)c(Br)c2[nH]1 | 5.00 | 7.64
8 | FC(F)(F)c1nc2c(Br)c(Br)c(Br)c(Br)c2[nH]1 | 8.70 | 7.25
9 | FC(F)(F)c1nc2cc(Br)c(Br)cc2[nH]1 | 6.66 | 6.92
